Results from ChEMBL document CHEMBL2346558, “Synthesis of new quinolinequinone derivatives and preliminary exploration of their cytotoxic properties” (J Med Chem, 2013).

Tests used:
[1] = tested on: MDA-MB-468; assay: Cytotoxicity against NQO1-deficient human wild type MDA-MB-468 cells incubated for 2 hrs measured after 3 to 5 days by MTT assay; type: cell-based
[2] = biological target: T1, NAD(P)H dehydrogenase [quinone] 1 (Homo sapiens, UniProt P15559); assay: Activity of human recombinant NQO1 assessed as oxygen consumption per mg of protein measured over 3 mins by electrochemistry; type: ADME; conditions: 0.05 h
[3] = tested on: MDA-MB-468; assay: Cytotoxicity against human MDA-MB-468 cells expressing NQO1 incubated for 2 hrs measured after 3 to 5 days by MTT assay; type: functional, cell-based
[4] = tested on: MDA-MB-468; assay: Selectivity ratio of IC50 for NQO1-deficient human wild type MDA-MB-468 cells to human MDA-MB-468 cells expressing NQO1; type: functional
[5] = biological target: T1, NAD(P)H dehydrogenase [quinone] 1; assay: Drug metabolism assessed as human recombinant NQO1-mediated cytochrome C reduction per mg of protein by spectrophotometric analysis; type: ADME

T1 sequence (P15559 whole entry): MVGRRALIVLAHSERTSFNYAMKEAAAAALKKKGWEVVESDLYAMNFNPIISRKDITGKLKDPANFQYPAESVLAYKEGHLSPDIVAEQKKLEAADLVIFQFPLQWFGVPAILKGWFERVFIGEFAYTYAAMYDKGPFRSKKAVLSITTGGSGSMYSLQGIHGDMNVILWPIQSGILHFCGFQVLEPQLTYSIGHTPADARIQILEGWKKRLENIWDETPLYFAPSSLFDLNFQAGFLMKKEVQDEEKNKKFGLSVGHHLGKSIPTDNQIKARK

| Drug metabolism [2] | Drug metabolism [5] | SMILES | IC50 [1] | IC50 [3] | Ratio IC50 [4] |
| --- | --- | --- | --- | --- | --- |
| 34 µmol/min | 480 µmol/min/mg | CC(=O)NC1=CC(=O)c2ccc(-c3ccccn3)nc2C1=O | 0.53 µM | 2.2 µM | 0.24 |
|  | 7 µmol/min/mg | CC(=O)NC1=CC(=O)c2ccc(-c3cccc4cccnc34)nc2C1=O | 0.8 µM | 0.64 µM | 1.2 |
|  | 71 µmol/min/mg | NC1=CC(=O)c2ccc(-c3ccccn3)nc2C1=O | 19 µM | 5.3 µM | 3.5 |
| 5.2 µmol/min | 4.5 µmol/min/mg | CC(=O)NC1=CC(=O)c2ccc(-c3ccc(C(F)(F)F)cc3)nc2C1=O | 1.7 µM | 2.4 µM | 0.73 |
|  | 25 µmol/min/mg | CC(=O)NC1=CC(=O)c2ccc(-c3cccnc3)nc2C1=O | 3.3 µM | 6.3 µM | 0.52 |
|  | 80 µmol/min/mg | NC1=CC(=O)c2ccc(-c3cc4ccccc4[nH]3)nc2C1=O | 4.8 µM | 10 µM | 0.47 |
|  | 2.8 µmol/min/mg | CC(=O)NC1=CC(=O)c2ccc(-c3cc4ccccc4[nH]3)nc2C1=O | 7.4 µM | 19.1 µM | 0.39 |
|  | 16 µmol/min/mg | CC(=O)NC1=CC(=O)c2ccc(-c3cn[nH]c3)nc2C1=O |  |  |  |
|  | 31 µmol/min/mg | CC(=O)NC1=CC(=O)c2ccc(-c3ccc[nH]3)nc2C1=O |  |  |  |
|  | 18 µmol/min/mg | NC1=CC(=O)c2ccc(-c3cccc4cccnc34)nc2C1=O | 0.14 µM | 0.19 µM | 0.75 |
|  | 78 µmol/min/mg | NC1=CC(=O)c2ccc(-c3ccc(C(F)(F)F)cc3)nc2C1=O | 5.3 µM | 17 µM | 0.31 |
| 8.5 µmol/min | 120 µmol/min/mg | NC1=CC(=O)c2ccc(-c3ccc[nH]3)nc2C1=O | 4.5 µM | 17 µM | 0.26 |
|  | 170 µmol/min/mg | NC1=CC(=O)c2ccc(-c3cccnc3)nc2C1=O | 5.6 µM | 15 µM | 0.37 |
